In patent US8394785B2, “Methods for the treatment and amelioration of urticaria” (Jado Technologies GmbH, priority 2005, dated 2013):
“Also recorded” adds a separate entry of the source. Where a name gives a salt, the structure may show the parent alone. Read-outs that look alike come from different tables or passages of the source.

Columns and labels:
[1] = system: Rat basophilic leukemia (RBL-2H3) cells; assay: Mast cell degranulation assay (β-hexosaminidase release); assay type: cell-based; settings: for IC50: 1 h, concentration at which 50% of maximal inhibition is reached, RBL-2H3, 60 min incubation with compound, DNP antigen challenge, read-out: ID50 (the source's name); for activity in the mast cell degranulation assay (in words): FIGS. 1 to 8
Experimental: The assay measures release of β-hexosaminidase as a marker of release of various preformed pharmacological agents in response to clustering of the high affinity IgE receptor (FcεRI) by means of multivalent antigen-IgE complexes. Rat basophilic leukemia (RBL-2H3) cells, a commonly used model of mast cell degranulation, are sensitized with anti-DNP specific IgE and challenged with multivalent DNP-BSA. The release of β-hexosaminidase into the supernatant is measured by enzymatic conversion of the fluorogenic substrate 4-methylumbelliferyl-N-acetyl-β-D-glucosaminide to N-acetyl-β-D-glucosamine and highly fluorescent methylumbelliferone and quantified by fluorescence detection in a Tecan Safire™ plate reader.
RBL-2H3 cells obtained from the German Collection of Microorganisms and Cell Cultures (Braunschweig, Germany) were maintained in 70% Minimum Essential Medium with Earle's Salts/20% RPMI 1640/10% heat-inactivated fetal calf serum) supplemented with 2 mM GlutaMAX™-I in 5% CO2 at 37° C. and routinely checked to be free of mycoplasma contamination. Cells grown in 175 cm^2 flasks were split with 0.05% Trypsin/EDTA and resuspended in 20 ml fresh medium. One hundred and 50 μl cell suspension were plated per well into 24 well cluster plates (Costar, Schiphol-Rijk, Netherlands) and cells were used one or two days after plating, respectively.
Two to 24 hours before incubation with test compounds the medium was removed and cells were sensitized with 0.4 μg/ml anti-DNP IgE in fresh medium. Following sensitization, cells were washed once with warm TyB and incubated for 60 min with test compound at a maximum of 100 μM or the highest non-toxic concentration (total vehicle concentration adjusted to 1%) or 1% vehicle in TyB at 37° C. DNP-HSA (0.1 μg/ml final concentration) or buffer alone was added and cells incubated for 15 min at 37° C. Plates were centrifuged at 4° C. for 5 min at 250×g and immediately transferred to ice. Supernatants were collected and the cells lysed with lysis buffer. Hexosaminidase activity in supernatants and lysates was measured by incubating 25 μl aliquots with 100 μl MUG substrate solution in a 96-well plate at 37° C. for 30 min. The reaction was terminated by addition of 150 μl stop solution. Fluorescence was measured in a Tecan Safire™ plate reader at 365 nm excitation and 440 nm emission settings.
Each compound is tested in duplicates in at least three independent experiments. β-hexosaminidase release is calculated after subtraction of unspecific release (release without addition of antigen) using the formula: % degranulation=100×RFU supernatant/RFU lysate
Inhibition of β-hexosaminidase release with respect to control is calculated as
follows: % inhibition=100×(1−(RFU supernatant of compound/RFU supernatant of control))

[2] = system: membrane integrity (lactate dehydrogenase release); assay: Cytotoxicity test / membrane integrity assay (Promega Cytotox-One), lactate dehydrogenase release; settings: for CD50: concentration at which 50% of maximal lactate dehydrogenase release is reached; for cytotoxicity (in words): Table 2
[3] = system: membrane integrity (lactate dehydrogenase release)
[4] = Rattus norvegicus, RBL-2H3, 25 μM, read-out: maximum inhibition (concentration used)
[5] = Rattus norvegicus, RBL-2H3, at or 25 μM, read-out: inhibition of degranulation
[6] = Rattus norvegicus, RBL-2H3, read-out: maximum inhibition (concentration used)

| Structure (SMILES) | IC50 ([1]; Rattus norvegicus) [µM] | inhibition at 25 µM [1, 4] [%] | CD50 [2] [µM] | inhibition at 25 µM [1, 5] [%] | inhibition at 10 µM [1, 6] [%] | other results |
| --- | --- | --- | --- | --- | --- | --- |
| C/C=C/C(=O)O[C@H](COCCCCCCCCCCCCCCCC)COP(=O)([O-])OCCCCCC[N+](C)(C)C [Compound 7, butenoyl PAF C-16] | 11 | 69 | 79.6 | – | – | – |
| CCCCCCCCCCCCCCCCSCC(COC)COP(=O)([O-])OCC[N+](C)(C)C (centres unmarked) [Compound 4, 1-hexadecylmercapto-2-methoxymethyl-3-propyl phosphoric acid monocholine ester, reference compound] | 4.8 | 84 | – | > 75 | – | – |
| CCCCCCCCCCCCCCCCOC[C@H](COP(=O)([O-])OCC[N+](C)(C)C)OC(C)=O [Compound 14, 1-hexadecyl-2-acetyl-sn-glycero-3-phosphocholine] | – | 42 | – | – | – | CD50 [3]: 57.7 µM |
| CCCCCCCCCCCCCCCCOC[C@H](COP(=O)([O-])OCC[N+](C)(C)C)OCC [Compound 2, 2-O-ethyl PAF C-16] | 3 | – | 57.2 | > 75 | 86 | – |
| CCCCCCCCCCCCOP(=O)([O-])OCC[N+](C)(C)C [Compound 17, Dodecylphosphocholine] | 7.1 | 76 | >100 | > 75 | – | – |
| CCCCCCCCCCCCCCCCOC[C@H](CO)OC [Compound 22, 1-O-hexa-decyl-2-O-methyl-sn-glycerol, reference compound] | – | – | >100 | – | – | activity in the mast cell degranulation assay (in words) [1]: poor results; inhibition at 100 µM ([1]; Rattus norvegicus, RBL-2H3, 100 μM, read-out: maximum inhibition (concentration used)): 15% |
| CCCCCCCCCCCCCCCCOC[C@H](COP(=O)([O-])OCC[N+](C)(C)C)OC [Compound 1, 2-O-methyl PAF C-16] | 2.9 | – | 48.2 | > 75 | 89 | – |
| CCCCCCCCCCCCCCCCCCOCC(COP(=O)([O-])OCC[N+](C)(C)C)OC (centres unmarked) [Compound 5, edelfosine, reference compound] | 6.2 | 79 | 59.0 | > 75 | – | cytotoxicity (in words) [2]: higher cytotoxicity |
| CCCCCCCCCCCCCCCCCCOP(=O)([O-])OCC[N+](C)(C)C [Compound 23, octadecylphosphocholine (C18:0)] | 2.6 | – | >50 | > 75 | 82 | – |
| CCCCCCCCCCCCCCCCOC[C@H](COP(=O)([O-])OCCCCCC[N+](C)(C)C)OC(C)=O [Compound 16, 1-O-hexadecyl-2-acetyl-sn-glycero-3-phospho-(N,N,N-trimethyl)hexanolamine] | – | 45 | 51.3 | – | – | – |
| CCCCCCCCCCCCCCCCOCCCOP(=O)([O-])OCC[N+](C)(C)C [Compound 26, 1-O-hexadecyl-propanediol-3-phosphocholine] | 3.1 | – | – | > 75 | 90 | – |
| CCCCCCCCCCCCCCCCOC[C@@H](O)COP(=O)([O-])OCC[N+](C)(C)C [Compound 13, 1-hexadecyl-sn-glycero-3-phosphocholine 3-sn-lysophosphatidylcholine] | – | 41 | 58.8 | – | – | – |
| CCCCCCCCCCCCCCCCOC[C@H](COP(=O)([O-])OCC[N+](C)(C)C)SC(C)=O [Compound 12, 2-thio PAF C-16] | – | 41 | 86.5 | – | – | – |
| CCCCCCCC/C=C/CCCCCCCCOP(=O)([O-])OCC[N+](C)(C)C [Compound 24, 1-elaidylphosphocholine (C18:1, trans)] | 2.9 | – | 59.6 | > 75 | 92 | – |
| O=C(O)c1cc(=O)c2c(OCC(O)COc3cccc4oc(C(=O)O)cc(=O)c34)cccc2o1 [cromogylcic acid, reference compound] | – | – | – | – | – | activity in the mast cell degranulation assay (in words) [1]: no or only low activity |
| CCCCCCCCCCCCCCCCOCC(COP(=O)([O-])OCC[N+](C)(C)C)OC(C)=O (centres unmarked) [Compound 25, 3-O-hexadecyl-2-acetyl-sn-glycero-1-posphocholine] | 3 | – | – | > 75 | 82 | – |
| CCCCCCCCCCCCCCCCCCOCC(C)(C)COP(=O)([O-])OCC[N+](C)(C)C [Compound 27, 1-O-octadecyl-(2,2-dimethyl)-propanediol-3-phosphocholine] | 8 | 85 | – | > 75 | – | – |
| CCCCCCCCCCCCCCCCOC[C@H](COP(=O)([O-])OCC[N+](C)(C)C)OC(=O)CC [Compound 28, 1-O-hexadecyl-2-propionyl-sn-glycero-3-phosphocholine] | 13.1 | 64 | – | – | – | – |
| CCCCCCCCCCCCCCCCOC[C@H](COP(=O)([O-])OCC[N+]1(C)CCCC1)OC(C)=O [Compound 8, pyrrolidino PAF C-16] | 13.7 | 53 | 50.2 | – | – | – |
| CCCCCCCCCCCCCCCCCCOP(=O)([O-])OC1CC[N+](C)(C)CC1 [Compound 9, octadecyl-(N,N-dimethyl-piperidinio-4-yl)-phosphate, reference compound] | 2.8 | – | 76.7 | > 75 | 85 | cytotoxicity (in words) [2]: less cytotoxic; also recorded: low toxicity |
| CN1CCC(=C2c3ccccc3CC(=O)c3sccc32)CC1 [ketotifen fumarate, reference compound] | – | – | – | – | – | activity in the mast cell degranulation assay (in words) [1]: no or only low activity |
| CCCCCCCCCCCCCCCC(=O)OC[C@H](O)COP(=O)([O-])OCC[N+](C)(C)C [Compound 20, 1-palmitoyl-2-hydroxy-sn-glycero-3-phosphocholine] | – | 26 | – | – | – | CD50 [3]: 70.3 µM |
